In ChEMBL document CHEMBL1201862, “PubChem BioAssay data set” (2004):
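Following 48 hours of exposure in 96-well plates, responses at five concentrations were used to interpolate endpoints linearly. At the GI50, growth is halved.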 Activity calls are given as the source filed them. Rule as the data show it: active = GI50 up to about 1.1 µM and inactive = higher.

Columns and labels:
Assay in all cases: growth of human tumour cells (NCI), 48 h
[1] = system: 786-0
[2] = system: A549
[3] = system: CCRF-CEM
[4] = system: COLO 205
[5] = system: HOP-92
[6] = system: LOX IMVI
[7] = system: MDA-MB-435
[8] = system: NCI/ADR-RES
[9] = system: OVCAR-3
[10] = system: OVCAR-4
[11] = system: OVCAR-8
[12] = system: RPMI-8226
[13] = system: RXF 393
[14] = system: SF-268
[15] = system: SF-295
[16] = system: SK-OV-3
[17] = system: SNB-19
[18] = system: TK-10
[19] = system: UACC-62
[20] = system: HL-60

Measured: GI50

O=S(=O)(O)c1cc(S(=O)(=O)O)c2c(/N=N/c3ccccc3)c(O)ccc2c1
inactive: [1] > 100 µM | [2] > 100 µM | [3] > 100 µM | [4] > 100 µM | [5] > 100 µM | [6] > 100 µM | [7] > 100 µM | [8] > 100 µM | [9] > 100 µM | [10] > 100 µM | [11] > 100 µM | [12] > 100 µM | [13] > 100 µM | [14] > 100 µM | [15] > 100 µM | [16] > 100 µM | [17] > 100 µM | [18] > 100 µM | [19] > 100 µM

Cn1c(O)c(C2=Nc3ccccc3C2=O)c2ccccc21
inactive: [1] > 100 µM | [2] > 100 µM | [3] > 100 µM | [4] > 100 µM | [5] > 100 µM | [6] > 100 µM | [7] > 100 µM | [8] > 100 µM | [9] > 100 µM | [10] > 100 µM | [11] > 100 µM | [12] > 100 µM | [13] > 100 µM | [14] > 100 µM | [15] > 100 µM | [16] > 100 µM | [17] > 100 µM | [18] > 100 µM | [19] > 100 µM

C[C@]12C[C@@H](OC(=O)[C@]1(C)O)[C@@H]([C@]1(O)CC[C@H]3[C@@H]4C[C@H]5O[C@]56C[C@H]5O[C@H]5C(=O)[C@]6(C)[C@H]4CC[C@@]31C)C2
inactive: [1] > 50 µM | [2] > 50 µM | [3] > 50 µM | [4] > 50 µM | [20] > 50 µM | [5] > 50 µM | [7] > 50 µM | [8] > 50 µM | [10] 27.5 µM | [11] > 50 µM | [12] > 50 µM | [13] > 50 µM | [14] > 50 µM | [15] > 50 µM | [16] > 50 µM | [17] > 50 µM | [18] > 50 µM | [19] > 50 µM

CC1CN=C(Nc2ccc(F)c(Cl)c2)S1 (configuration not stated)
inactive: [1] > 100 µM | [2] 88.9 µM | [3] 29.7 µM | [4] > 100 µM | [20] 29.9 µM | [5] 28.9 µM | [6] 86.7 µM | [7] > 100 µM | [8] 42.5 µM | [9] > 100 µM | [11] > 100 µM | [12] 39.3 µM | [13] 37.6 µM | [14] 92.3 µM | [15] > 100 µM | [16] > 100 µM | [17] > 100 µM | [18] > 100 µM | [19] > 100 µM

Cc1cc2nc3c(N)nn(CCN(C)C)c3nc2cc1C
inactive: [1] 40.1 µM | [2] 31.9 µM | [3] 42.3 µM | [4] 28.1 µM | [5] 38.5 µM | [6] 25.9 µM | [7] 37.9 µM | [8] 33.3 µM | [9] 55 µM | [10] 40.6 µM | [11] 33.8 µM | [12] 63.7 µM | [13] 30.4 µM | [14] 38.5 µM | [15] 78.7 µM | [16] 45.2 µM | [17] 40.7 µM | [18] 41.4 µM | [19] 39.5 µM

COc1ccc(OC)c2sc(N3C(=O)/C(=C/c4cccc([N+](=O)[O-])c4)N=C3c3ccccc3)nc12
inactive: [1] 49.7 µM | [2] 47.1 µM | [3] 24.9 µM | [4] > 100 µM | [20] 20.8 µM | [5] 94.2 µM | [6] 23.1 µM | [7] 23.9 µM | [8] 56 µM | [9] 35.6 µM | [11] 28.5 µM | [12] 22.5 µM | [13] 55.1 µM | [14] 57.5 µM | [15] 51.8 µM | [16] 50.6 µM | [17] > 100 µM | [18] 74 µM | [19] 36.4 µM

OCC1OC(n2nc(-c3ccccc3)nc2-c2cnccn2)C(O)C(O)C1O (configuration not stated)
inactive: [1] > 100 µM | [2] > 100 µM | [3] > 100 µM | [4] > 100 µM | [20] > 100 µM | [5] > 100 µM | [6] > 100 µM | [7] > 100 µM | [8] > 100 µM | [9] > 100 µM | [10] > 100 µM | [11] > 100 µM | [12] > 100 µM | [15] > 100 µM | [16] > 100 µM | [17] > 100 µM | [19] > 100 µM

O=C1OC2(C(F)(F)F)Oc3ccccc3CN2C12CCCCC2 (configuration not stated)
inactive: [1] 35.3 µM | [2] 28.6 µM | [3] 25.1 µM | [4] 18.7 µM | [20] 16.5 µM | [5] 24.9 µM | [6] 22.4 µM | [7] 39.6 µM | [8] 31.1 µM | [9] 28.6 µM | [10] 31.8 µM | [11] 36.3 µM | [13] 20.4 µM | [14] 35.6 µM | [15] 21.1 µM | [16] 26.7 µM | [17] 36.3 µM | [18] 46.2 µM | [19] 28 µM

CSc1nc(-c2ccc(C)cc2)c(C#N)c(=O)[nH]1
inactive: [1] > 100 µM | [2] > 100 µM | [3] > 100 µM | [4] > 100 µM | [20] > 100 µM | [5] 85.3 µM | [7] > 100 µM | [8] > 100 µM | [9] > 100 µM | [10] > 100 µM | [11] > 100 µM | [12] > 100 µM | [13] > 100 µM | [14] > 100 µM | [15] > 100 µM | [16] > 100 µM | [17] > 100 µM | [18] > 100 µM | [19] > 100 µM

CC(C)CNC(=O)Cn1c2c(c3ccccc31)CCCC2
inactive: [1] 20.7 µM | [2] 49.7 µM | [3] 56.4 µM | [4] 73.8 µM | [20] 34 µM | [5] 43.8 µM | [6] 39.5 µM | [7] 73.3 µM | [8] 59.7 µM | [9] 39 µM | [10] 35.4 µM | [11] 81.5 µM | [12] 40.6 µM | [14] 37.5 µM | [15] 35.8 µM | [16] 23.7 µM | [17] 85.3 µM | [18] 35.8 µM | [19] 50.1 µM
